Results as given in patent US20260285849A1, “METHYLOPHIOPOGONONE A DERIVATIVE, AND PREPARATION AND USE THEREOF” (INSTITUTE OF MATERIA MEDICA, CHINESE ACADEMY OF MEDICAL …, priority 2022, published 2026).
Where two headings read alike, the source gives them in different places. Marks after values point to notes of the source that are not given here.

Experiments:
[1] = tested on: H9C2 cardiomyocytes; conditions: 6 h hypoxia, 12 h reoxygenation, CCK 450 nm
[2] = tested on: mice with hypertensive heart disease induced by angiotensin II (AngII); assay: AngII-induced hypertensive heart disease mouse model: serum aldosterone (ALD) (ELISA); format: in vivo
Method: (§1) After male C57BL/6 mice were acclimated to the environment, they were randomly divided into 10 groups, namely the blank control group, the AngII model group, the AngII+telmisartan 10 mg/kg positive control group, the AngII+spironolactone 20 mg/kg positive control group, the AngII+Formula I (0.1, 0.5, 2 mg/kg) groups, and the AngII+Formula II (0.1, 0.5, 2 mg/kg) groups. The mice in the drug administration groups were intragastrically administered the corresponding doses of Formula I and Formula II compounds once a day at the same time. The mice in the positive control groups were intragastrically administered the corresponding doses of telmisartan and spironolactone once a day. The mice in the blank control group and the model group were given the same amount of solvent (0.5% CMC-Na solution). The administration volume was 10 mL/kg, and the administration was continuous for 14 days. From the 1st to the 13th day of drug administration, AngII modeling was carried out. The mice in the blank control group were subcutaneously injected with normal saline, and the mice in the other groups were subcutaneously injected with 1.44 mg/kg of AngII (modeling was carried out 2 h after drug administration), for a total of 13 times. Detection of serum aldosterone (ALD) level: After the experiment, the animals were sacrificed by enucleation to obtain blood. The blood was left to stand at room temperature for 2 hours, and then centrifuged at 3500 rpm for 20 minutes to separate the serum. The content of serum ALD was determined according to the instructions of the ELISA kit.

[3] = tested on: Rat H9C2 cardiomyocytes; assay: cells; conditions: H9c2, 24 h, read-out: Cell viability
Method: Rat H9C2 cardiomyocytes in the logarithmic growth phase were seeded at a density of 7×10^4 cells/mL into 96-well plates, with 100 μL per well. […] After 24 hours of culture, the drug treatment groups were respectively added with 50 μM Ang II and the corresponding concentration of the drug. The Ang II model group was added with 50 μM Ang II and an equal volume of DMSO, and the blank control group was added with an equal volume of DMSO. Then, the cells were cultured for another 24 hours. After removing the supernatant, 100 μL of MTT solution (0.5 mg/mL) was added to each well, and the plates were placed in an incubator for 4 hours. After removing the supernatant again, 150 μL of DMSO was added to each well, and the mixture was shaken and mixed evenly for 10 minutes. The absorbance was measured at 570 nm using a microplate reader to calculate the cell viability.
Cell viability (%)=[(As−Ab)/(Ac−Ab)]×100% • As: Experimental well (culture medium containing cells, MTT, Ang II); • Ac: Control well (culture medium containing cells, MTT, without Ang II); • Ab: Blank well (culture medium without cells, MTT, without Ang II).

[4] = tested on: mice with hypertensive heart disease induced by angiotensin II (AngII); assay: AngII-induced hypertensive heart disease mouse model: serum cTn-T and CK-MB (ELISA); format: in vivo
Method: as §1, with “biomarkers of myocardial injury:” for “aldosterone (ALD) level:”, “contents” for “content”, “cardiac troponin cTn-T and myocardial enzyme CK-MB were” for “ALD was”

[5] = tested on: mice with hypertensive heart disease induced by angiotensin II (AngII); assay: AngII-induced hypertensive heart disease mouse model: echocardiogram; format: in vivo; conditions: left ventricle, day 14
Method: After male C57BL/6 mice were acclimated to the environment, they were randomly divided into 10 groups, namely the blank control group, the AngII model group, the AngII+telmisartan 10 mg/kg positive control group, the AngII+spironolactone 20 mg/kg positive control group, the AngII+Formula I (0.1, 0.5, 2 mg/kg) groups, and the AngII+Formula II (0.1, 0.5, 2 mg/kg) groups. The mice in the drug administration groups were intragastrically administered the corresponding doses of Formula I and Formula II compounds once a day at the same time. The mice in the positive control groups were intragastrically administered the corresponding doses of telmisartan and spironolactone once a day. The mice in the blank control group and the model group were given the same amount of solvent (0.5% CMC-Na solution). The administration volume was 10 mL/kg, and the administration was continuous for 14 days.
From the 1st to the 13th day of drug administration, AngII modeling was carried out. The mice in the blank control group were subcutaneously injected with normal saline, and the mice in the other groups were subcutaneously injected with 1.44 mg/kg of AngII (modeling was carried out 2 h after drug administration), for a total of 13 times.
Echocardiogram detection: On the 14th day of drug administration (after 13 times of AngII modeling), 5 animals were randomly selected from each group. After anesthesia and fixation, the chest hair was shaved, and a small amount of coupling agent was applied to the chest. The Vevo 770 Imaging System, a small animal ultrasonic real-time imaging system, was used for echocardiogram examination. All echocardiogram indexes of the animals were continuously measured for 3 cardiac cycles, and the average value was taken.

[6] = 0.1 mg/kg intragastric once a day 14 days
[7] = 0.5 mg/kg intragastric once a day 14 days
[8] = 2 mg/kg intragastric once a day 14 days
[9] = 0.1 mg/kg intragastric once a day
[10] = 0.5 mg/kg intragastric once a day
[11] = 2 mg/kg intragastric once a day
[12] = 20 mg/kg intragastric once a day 14 days
[13] = 20 mg/kg intragastric once a day
[14] = 10 mg/kg intragastric once a day 14 days
[15] = 10 mg/kg intragastric once a day

With `Cc1c(O)cc(O)c2c(=O)c(Cc3ccc4c(c3)OCO4)coc12` [Formula II, 3-(benzo[d][1,3]dioxol-5-ylmethyl)-5,7-dihydroxy-8-methyl-4H-chromen-4-one] the OD ([1]; 0.1 μM) was 0.630 ± 0.070, the OD ([1]; 0.3 μM) was 0.612 ± 0.059 and the OD ([1]; 1 μM) was 0.542 ± 0.075. The OD ([1]; 3 μM) was 0.640 ± 0.070, the OD ([1]; 5 μM) was 0.466 ± 0.023 and the OD ([1]; 10 μM) was 0.498 ± 0.071. The ALD [2, 6] was 186.44 ± 21.59 pg/mL, the ALD [2, 7] was 177.28 ± 21.57 pg/mL and the ALD [2, 8] was 185.89 ± 12.61 pg/mL. The viability at 0.1 µM [3] was 81.4%, the viability at 0.3 µM [3] was 73.5% and the viability at 1 µM [3] was 77.6%. It also gave a viability at 3 µM [3] of 73%, a viability at 10 µM [3] of 75.6% and a CK-MB [4, 6] of 15.36 ± 2.41 ng/mL. It also gave a cTn-T [4, 6] of 153.56 ± 13.05 ng/L, a CK-MB [4, 7] of 14.07 ± 1.33 ng/mL and a cTn-T [4, 7] of 145.15 ± 15.79 ng/L. The CK-MB [4, 8] was 13.39 ± 2.57 ng/mL, the cTn-T [4, 8] was 136.64 ± 18.24 ng/L and the “Post-diastolic posterio rwall thickness” value [5, 9] was 0.72 ± 0.08 mm. The “Posterior wall thickness in systole” value [5, 9] was 0.91 ± 0.10 mm, the “Post-diastolic posterio rwall thickness” value [5, 10] was 0.69 ± 0.06 mm and the “Posterior wall thickness in systole” value [5, 10] was 0.87 ± 0.04 mm. For the same compound, the “Post-diastolic posterio rwall thickness” value [5, 11] was 0.72 ± 0.06 mm and the “Posterior wall thickness in systole” value [5, 11] was 0.82 ± 0.11 mm.

`O=c1c(Cc2ccc3c(c2)OCO3)coc2cc(O)cc(O)c12` [Formula I] gave an OD ([1]; 0.1 μM) of 0.630 ± 0082, an OD ([1]; 0.3 μM) of 0.628 ± 0.061 and an OD ([1]; 1 μM) of 0.576 ± 0.063. For the same compound, the OD ([1]; 3 μM) was 0.620 ± 0.069, the OD ([1]; 5 μM) was 0.566 ± 0.074^(p = 0.07) and the OD ([1]; 10 μM) was 0.575 ± 0.091. For the same compound, the ALD [2, 6] was 206.80 ± 16.10 pg/mL, the ALD [2, 7] was 192.69 ± 14.38 pg/mL and the ALD [2, 8] was 199.41 ± 31.27 pg/mL. The viability at 0.1 µM [3] was 75.1%, the viability at 0.3 µM [3] was 72.5% and the viability at 1 µM [3] was 73.5%. For the same compound, the viability at 3 µM [3] was 75.9%, the viability at 10 µM [3] was 76.4% and the CK-MB [4, 6] was 15.73 ± 1.79 ng/mL. The cTn-T [4, 6] was 167.25 ± 24.56 ng/L, the CK-MB [4, 7] was 15.17 ± 1.63 ng/mL and the cTn-T [4, 7] was 165.79 ± 23.78 ng/L. For the same compound, the CK-MB [4, 8] was 15.72 ± 1.89 ng/mL, the cTn-T [4, 8] was 164.52 ± 19.68 ng/L and the “Post-diastolic posterio rwall thickness” value [5, 9] was 0.79 ± 0.09 mm. The “Posterior wall thickness in systole” value [5, 9] was 0.90 ± 0.06 mm, the “Post-diastolic posterio rwall thickness” value [5, 10] was 0.64 ± 0.02 mm and the “Posterior wall thickness in systole” value [5, 10] was 0.87 ± 0.11 mm. For the same compound, the “Post-diastolic posterio rwall thickness” value [5, 11] was 0.67 ± 0.08 mm and the “Posterior wall thickness in systole” value [5, 11] was 0.90 ± 0.16 mm.

`CC(=O)S[C@@H]1CC2=CC(=O)CC[C@]2(C)[C@H]2CC[C@@]3(C)[C@@H](CC[C@@]34CCC(=O)O4)[C@H]12` [Spironolactone, reference compound] was tested, and the ALD [2, 12] was 209.03 ± 25.11 pg/mL, the CK-MB [4, 12] was 18.86 ± 1.40 ^ ng/mL and the cTn-T [4, 12] was 169.17 ± 21.95 ng/L. For the same compound, the “Post-diastolic posterio rwall thickness” value [5, 13] was 0.81 ± 0.07 mm and the “Posterior wall thickness in systole” value [5, 13] was 1.01 ± 0.08 mm.

For `CCCc1nc2c(C)cc(-c3nc4ccccc4n3C)cc2n1Cc1ccc(-c2ccccc2C(=O)O)cc1` [Telmisartan, reference compound], the ALD [2, 14] was 162.74 ± 7.38 pg/mL, the CK-MB [4, 14] was 12.72 ± 1.09 ng/mL and the cTn-T [4, 14] was 134.07 ± 17.50 ng/L. The “Post-diastolic posterio rwall thickness” value [5, 15] was 0.65 ± 0.07 mm and the “Posterior wall thickness in systole” value [5, 15] was 0.79 ± 0.16 mm.
